Results as given in patent publication EP0618807B1, “A STABILIZED PHARMACEUTICAL FORMULATION COMPRISING GROWTH HORMONE AND HISTIDINE” (NOVO NORDISK A/S, priority 1991, dated 1993).

Key:
[1] = Stability statements of the general description (deamidation, stability in solution); assay type: physicochemical; settings: addition of the solvent to the hGH preparation
[2] = Example 2: deamidation at 25°C with histidine or histidine derivatives, desamido content by IE-HPLC; assay type: physicochemical; settings: compared to phosphate at pH 6.5
Description: The rate of deamidation was examined at 25°C for hGH preparations comprising 6 IU hGH at pH 6.5 and at pH 7.3 in 5 mM, 10 mM and 100mM His buffer as compared to 8 mM phosphate buffer at the same pH. Furthermore, the histidine derivatives His-Gly, His-Ala, His-Leu, His-Lys, His-Phe, His-Ser, Histidine methyl ester, histidinol, imidazole, imidazole-4-acetic acid and histamine were tested.
The hGH preparations were prepared by dissolving 20 mg hGH in 10 ml of histidine buffer of the desired strength prepared by dissolving 7.8 mg, 15.5 mg and 155.2 mg, respectively, of histidine in 10 ml deionized water containing 0.9% (v/v) of benzyl alcohol and adding 0.1 N hydrochloric acid to achieve the stated pH.
The hGH formulations stated in Table 2 below were stored at 25°C and analyzed for their desamido content after 14 and 30 days by IE-HPLC.

| SMILES | reduction in the deamidation [1] | effect on de-amidation / stabilization (in words) [2] |
| --- | --- | --- |
| CCO [10% ethanol, ethanol] | more than 20% | – |
| Cc1cccc(O)c1 [m-cresol] | – | no influence |
| OCc1ccccc1 [benzyl alcohol] | – | no influence |
| CO [5% methanol, methanol] | more than 20% | – |
